Literature values in patent US11718832B2, “Method to reduce oncogenic potential of induced pluripotent stem cells from aged donors” (MEMORIAL SLOAN-KETTERING CANCER CENTER, priority 2014, dated 2023).

test system: GSS; conditions: literature

**Q.** Which “Inhibition of GSS” value does the source give for `[N-]=[N+]=CC(=O)OC[C@H](N)C(=O)O` [azaserine] here?
**A.** The value was “inhibit GSS”.

**Q.** Which “Inhibition of GSS” value does the source give for `[N-]=[N+]=CC(=O)CC[C@H](N)C(=O)O` [6-Diazo-5-oxo-L-norleucine] here?
**A.** Its value is “inhibit GSS”.

**Q.** With `CCCCS(=N)(=O)CCC(N)C(=O)O` (stereo not drawn) [buthionine sulfoximine] as the molecule, how does the “Inhibition of GSS” value read?
**A.** Its value is “inhibit GSS”.
